{"source": "ChEMBL document CHEMBL5331051", "about": "“Cationic, amphipathic small molecules based on a triazine-piperazine-triazine scaffold as a new class of antimicrobial agents” (Eur J Med Chem, 2022)", "assay_type_in_all_cases": "functional", "key": {"Pseudomonas aeruginosa [1]": {"system": "Pseudomonas aeruginosa", "test": "Antibiofilm activity against multidrug-resistant Pseudomonas aeruginosa assessed as bacterial growth inhibition at 8 ug/ml relative to control"}, "Pseudomonas aeruginosa [2]": {"system": "Pseudomonas aeruginosa", "test": "Additive antibacterial activity against multidrug-resistant Pseudomonas aeruginosa CCARM 2095 strain assessed as fractional inhibitory concentration in presence of ciprofloxacin by checkerboard assay"}, "Pseudomonas aeruginosa [3]": {"system": "Pseudomonas aeruginosa", "test": "Additive antibacterial activity against multidrug-resistant Pseudomonas aeruginosa CCARM 2095 strain assessed as bacterial growth inhibition by checkerboard assay"}, "Pseudomonas aeruginosa [4]": {"system": "Pseudomonas aeruginosa", "test": "Additive antibacterial activity against multidrug-resistant Pseudomonas aeruginosa CCARM 2095 strain assessed as fractional inhibitory concentration index in presence of chloramphenicol by checkerboard assay"}, "Pseudomonas aeruginosa [5]": {"system": "Pseudomonas aeruginosa", "test": "Additive antibacterial activity against multidrug-resistant Pseudomonas aeruginosa CCARM 2095 strain assessed as bacterial growth inhibition in presence of ciprofloxacin by checkerboard assay"}, "Pseudomonas aeruginosa [6]": {"system": "Pseudomonas aeruginosa", "test": "Additive antibacterial activity against multidrug-resistant Pseudomonas aeruginosa CCARM 2095 strain assessed as fractional inhibitory concentration in presence of chloramphenicol by checkerboard assay"}, "Pseudomonas aeruginosa [7]": {"system": "Pseudomonas aeruginosa", "test": "Antibacterial activity against multidrug-resistant Pseudomonas aeruginosa CCARM 2095 strain assessed as chloramphenicol MIC by checkerboard assay"}, "Pseudomonas aeruginosa [8]": {"system": "Pseudomonas aeruginosa", "test": "Antibacterial activity against multidrug-resistant Pseudomonas aeruginosa CCARM 2095 strain assessed as bacterial growth inhibition in presence of chloramphenicol by checkerboard assay"}, "Staphylococcus aureus": {"system": "Staphylococcus aureus", "test": "Additive antibacterial activity against multidrug-resistant Staphylococcus aureus CCARM 3089 strain assessed as fractional inhibitory concentration index in presence of ciprofloxacin by checkerboard assay"}, "Pseudomonas aeruginosa [9]": {"system": "Pseudomonas aeruginosa", "test": "Antibacterial activity against multidrug-resistant Pseudomonas aeruginosa CCARM 2095 strain assessed as fractional inhibitory concentration in presence of chloramphenicol by checkerboard assay"}}}
{"smiles": "NCCN(CCN)c1nc(NCc2ccccc2)nc(N2CC(Cc3ccccc3)N(c3nc(NCc4ccccc4)nc(N(CCN)CCN)n3)CC2Cc2ccccc2)n1", "note": "(stereo not given)", "values": [{"measurement": "inhibition at 8 µg/mL", "setting": "Pseudomonas aeruginosa [1]", "result": 100, "unit": "%"}]}
{"smiles": "N=C(N)NCCNc1nc(NCCNC(=N)N)nc(N2CC(Cc3ccccc3)N(c3nc(NCCNC(=N)N)nc(NCCNC(=N)N)n3)CC2Cc2ccccc2)n1", "note": "(stereo not given)", "values": [{"measurement": "FIC", "setting": "Pseudomonas aeruginosa [2]", "result": 0.5}, {"measurement": "MIC", "setting": "Pseudomonas aeruginosa [3]", "result": 16, "unit": "µg/mL"}, {"measurement": "fractional inhibitory concentration index (FICI)", "setting": "Pseudomonas aeruginosa [4]", "result": 0.75}, {"measurement": "MIC", "setting": "Pseudomonas aeruginosa [5]", "result": 16, "unit": "µg/mL"}, {"measurement": "FIC", "setting": "Pseudomonas aeruginosa [6]", "result": 0.5}]}
{"smiles": "NCCNc1nc(NCCN)nc(N2CC(Cc3ccccc3)N(c3nc(NCCN)nc(NCCN)n3)CC2Cc2ccccc2)n1", "note": "(stereo not given)", "values": [{"measurement": "MIC", "setting": "Pseudomonas aeruginosa [7]", "result": 256, "unit": "µg/mL"}, {"measurement": "MIC", "setting": "Pseudomonas aeruginosa [8]", "result": 16, "unit": "µg/mL"}, {"measurement": "fractional inhibitory concentration index (FICI)", "setting": "Staphylococcus aureus", "result": 0.75}, {"measurement": "FIC", "setting": "Pseudomonas aeruginosa [9]", "result": 1, "unit": "µg/mL"}]}
